# Tests used:
# [1] = system: windgrass; test: Test Example 5: herbicidal effect by foliage application, plastic box (Table 20, symbol L); type: in vivo, windgrass (Apera spica-venti); settings: for herbicidal effect on windgrass (L): 320 g/ha, three weeks after application
# Method in brief: (§1)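 Sow seeds spot-wise in sterilized diluvial soil; cover with ~1.5 cm soil. Grow 14 days in greenhouse, 25° C. to 30° C. Spray foliage with emulsion diluted to predetermined amount. Rate effect after 3 weeks.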
# [2] = system: oval-leafed pondweed; test: Test Example 1: herbicidal activity, application before weed generation under submerged conditions (Table 16, symbol C); type: in vivo, oval-leafed pondweed (Monochoria vaginalis); settings: amount of applied herbicide 320 g/ha
# Method in brief: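 Submerged Wagner pots (alluvial soil, 4 cm water) sown with weed seeds and planted with 2.5-leaf rice seedlings; emulsifiable concentrate diluted in water applied to water surface on sowing day. Held in greenhouse at 25-30 °C; injury scored 0-5 by herbicidal rate after three weeks.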
# [3] = system: velvetleaf; test: Test Example 4: herbicidal effect by soil treatment (Table 19, symbol M); type: in vivo, velvetleaf (Abutilon theophrasti); settings: amount of applied herbicide 320 g/ha
# Method in brief: (§2)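 Soil-surface application: an emulsion agent diluted with water to the predetermined dose is sprayed uniformly over seeds lying under roughly 1.5 cm of sterilized diluvial soil. Boxes stay in a greenhouse at 25° C. to 30° C. Three weeks later, each species is graded on previously defined criteria.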
# [4] = system: southern crabgrass; test: Test Example 5: herbicidal effect by foliage application, plastic box (Table 20, symbol F); type: in vivo, southern crabgrass (Digitaria ciliaris)
# Method in brief: as §1
# [5] = system: persian speedwell; test: Test Example 5: herbicidal effect by foliage application, plastic box (Table 20, symbol R); type: in vivo, Persian speedwell (Veronica persica)
# Method in brief: as §1
# [6] = system: redroot pigweed; test: Test Example 4: herbicidal effect by soil treatment (Table 19, symbol N); type: in vivo, redroot pigweed (Amaranthus retroflexus); settings: amount of applied herbicide 320 g/ha
# Method in brief: as §2
# [7] = system: rice flat sedge; test: Test Example 3: herbicidal effect by foliage application, Wagner pot (Table 18, symbol E); type: in vivo, rice flat sedge (Cyperus iria); settings: for herbicidal effect on rice flat sedge (E): 320 g/ha
# Method in brief: (§3)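 Plants were sown in alluvial soil held under 0.1–0.5 cm standing water and grown 14 days in a greenhouse at 25–30 °C. An emulsifiable formulation, water-diluted to the set dose, was then sprayed onto the foliage, and effects were scored three weeks later using previously defined criteria.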
# [8] = system: Chinese sprangletop; test: Test Example 3: herbicidal effect by foliage application, Wagner pot (Table 18, symbol D); type: in vivo, chinese sprangletop (Leptochloa chinensis); settings: for herbicidal effect on Chinese sprangletop (D): 320 g/ha
# Method in brief: as §3
# [9] = system: lambsquarters; test: Test Example 4: herbicidal effect by soil treatment (Table 19, symbol O); type: in vivo, lambsquarters (Chenopodium album); settings: amount of applied herbicide 320 g/ha
# Method in brief: as §2
# [10] = system: chickweed; test: Test Example 5: herbicidal effect by foliage application, plastic box (Table 20, symbol P); type: in vivo, common chickweed (Stellaria media)
# Method in brief: as §1
# [11] = system: barnyard grass; test: Test Example 5: herbicidal effect by foliage application, plastic box (Table 20, symbol H); type: in vivo, barnyard grass (Echinochloa crus-galli)
# Method in brief: as §1
# [12] = system: windgrass; test: Test Example 4: herbicidal effect by soil treatment (Table 19, symbol L); type: in vivo, windgrass (Apera spica-venti); settings: amount of applied herbicide 320 g/ha
# Method in brief: as §2
# [13] = system: oval-leafed pondweed; test: Test Example 2: herbicidal activity, application during weed generation under submerged conditions (Table 17, symbol C); type: in vivo, oval-leafed pondweed (Monochoria vaginalis); settings: AAH 320 g/ha; application during weed generation, submerged conditions
# Method in brief: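 Mixed weed seedlings in alluvial soil under a 4 cm water layer, greenhouse-grown at 25–30° C. Compound given as a diluted emulsion into the floodwater at the 1–2 leaf stage; response graded after three weeks.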
# [14] = system: lambsquarters; test: Test Example 5: herbicidal effect by foliage application, plastic box (Table 20, symbol O); type: in vivo, lambsquarters (Chenopodium album)
# Method in brief: as §1
# [15] = system: southern crabgrass; test: Test Example 4: herbicidal effect by soil treatment (Table 19, symbol F); type: in vivo, southern crabgrass (Digitaria ciliaris); settings: amount of applied herbicide 320 g/ha
# Method in brief: as §2
# [16] = system: green foxtail; test: Test Example 5: herbicidal effect by foliage application, plastic box (Table 20, symbol G); type: in vivo, green foxtail (Setaria viridis)
# Method in brief: as §1
# [17] = amount of applied herbicide 320 g/ha, foliage application after 14-day growth, evaluated three weeks after application
# [18] = foliage application, AAH 320 g/ha, evaluated three weeks after application
# [19] = amount of applied herbicide 320 g/ha
# [20] = foliage application, 320 g/ha, three weeks after application
Structure (SMILES),"Herbicidal effect, C: oval-leafed pondweed [2]","M: velvetleaf, herbicidal effect grade [3]","N: redroot pigweed, herbicidal effect grade [6]",herbicidal effect on rice flat sedge (E) [7],herbicidal effect on Chinese sprangletop (D) [8],"O: lambsquarters, herbicidal effect grade [9]","L: windgrass, herbicidal effect grade [12]","herbicidal effect rating, C: oval-leafed pondweed [13]","F: southern crabgrass, herbicidal effect grade [15]",herbicidal effect on windgrass (L) ([1]; foliage application),"herbicidal effect on southern crabgrass (F) [4, 20]","herbicidal effect on persian speedwell (R) [5, 20]","herbicidal effect on barnyard grass (H) [11, 20]","herbicidal effect on lambsquarters (O) [14, 20]","herbicidal effect on green foxtail (G) [16, 20]",further results
CCCC(=O)Oc1c(C)nn(C)c(=O)c1-c1c(-c2ccc(C#N)cc2)sc2cc(F)c(F)cc12 [5-026],0 (Herbicidal rate of 5% or less (almost no effect)),0 (Herbicidal rate of 5% or less (almost no effect)),4 (Herbicidal rate of 70% or more and less than 90%),5 (Herbicidal rate of 90% or more (almost completely withered)),4 (Herbicidal rate of 70% or more and less than 90%),4 (Herbicidal rate of 70% or more and less than 90%),0 (Herbicidal rate of 5% or less (almost no effect)),0 (Herbicidal rate of 5% or less (almost no effect)),0 (Herbicidal rate of 5% or less (almost no effect)),,,,,,,"Herbicidal effect by foliage application, L: windgrass [1, 17]: 0 (Herbicidal rate of 5% or less (almost no effect)); Herbicidal effect by foliage application, F: southern crabgrass [4, 17]: 0 (Herbicidal rate of 5% or less (almost no effect)); Herbicidal effect by foliage application, R: persian speedwell [5, 17]: 4 (Herbicidal rate of 70% or more and less than 90%); Herbicidal effect by foliage application, P: chickweed [10, 17]: 5 (Herbicidal rate of 90% or more (almost completely withered)); Herbicidal effect by foliage application, H: barnyard grass [11, 17]: 0 (Herbicidal rate of 5% or less (almost no effect)); Herbicidal effect by foliage application, O: lambsquarters [14, 17]: 4 (Herbicidal rate of 70% or more and less than 90%); Herbicidal effect by foliage application, G: green foxtail [16, 17]: 0 (Herbicidal rate of 5% or less (almost no effect))"
Cc1nn(C)c(=O)c(-c2c(-c3cnccc3C(F)(F)F)sc3ccc(F)cc23)c1O [2-387],0 (Herbicidal rate of 5% or less (almost no effect)),,,,,,,4 (Herbicidal rate of 70% or more and less than 90%),,,,,,,,"L: windgrass, herbicidal effect (criteria 0-5) [1, 18]: 5 (Herbicidal rate of 90% or more (almost completely withered)); herbicidal effect, M: velvetleaf [3]: 3 (Herbicidal rate of 40% or more and less than 70%); F: southern crabgrass, herbicidal effect (criteria 0-5) [4, 18]: 4 (Herbicidal rate of 70% or more and less than 90%); R: persian speedwell, herbicidal effect (criteria 0-5) [5, 18]: 5 (Herbicidal rate of 90% or more (almost completely withered)); herbicidal effect, N: redroot pigweed [6]: 5 (Herbicidal rate of 90% or more (almost completely withered)); herbicidal effect on E: rice flat sedge [7, 19]: 5 (Herbicidal rate of 90% or more (almost completely withered)); herbicidal effect on D: Chinese sprangletop [8, 19]: 5 (Herbicidal rate of 90% or more (almost completely withered)); herbicidal effect, O: lambsquarters [9]: 4 (Herbicidal rate of 70% or more and less than 90%); P: chickweed, herbicidal effect (criteria 0-5) [10, 18]: 5 (Herbicidal rate of 90% or more (almost completely withered)); H: barnyard grass, herbicidal effect (criteria 0-5) [11, 18]: 5 (Herbicidal rate of 90% or more (almost completely withered)); herbicidal effect, L: windgrass [12]: 3 (Herbicidal rate of 40% or more and less than 70%); O: lambsquarters, herbicidal effect (criteria 0-5) [14, 18]: 5 (Herbicidal rate of 90% or more (almost completely withered)); herbicidal effect, F: southern crabgrass [15]: 3 (Herbicidal rate of 40% or more and less than 70%); G: green foxtail, herbicidal effect (criteria 0-5) [16, 18]: 3 (Herbicidal rate of 40% or more and less than 70%)"
COc1cc(F)ccc1-c1sc2cc(C)c(C)cc2c1-c1c(O)c(C)nn(C)c1=O [5-101],3 (Herbicidal rate of 40% or more and less than 70%),0 (Herbicidal rate of 5% or less (almost no effect)),1 (Herbicidal rate of 5% or more and less than 20%),3 (Herbicidal rate of 40% or more and less than 70%),2 (Herbicidal rate of 20% or more and less than 40%),2 (Herbicidal rate of 20% or more and less than 40%),0 (Herbicidal rate of 5% or less (almost no effect)),2 (Herbicidal rate of 20% or more and less than 40%),0 (Herbicidal rate of 5% or less (almost no effect)),3 (Herbicidal rate of 40% or more and less than 70%),4 (Herbicidal rate of 70% or more and less than 90%),4 (Herbicidal rate of 70% or more and less than 90%),3 (Herbicidal rate of 40% or more and less than 70%),4 (Herbicidal rate of 70% or more and less than 90%),4 (Herbicidal rate of 70% or more and less than 90%),
CCCC(=O)Oc1c(C)nn(C)c(=O)c1-c1c(-c2ccc(F)cc2)sc2cc(C)c(C)cc12 [5-089],0 (Herbicidal rate of 5% or less (almost no effect)),0 (Herbicidal rate of 5% or less (almost no effect)),0 (Herbicidal rate of 5% or less (almost no effect)),3 (Herbicidal rate of 40% or more and less than 70%),3 (Herbicidal rate of 40% or more and less than 70%),0 (Herbicidal rate of 5% or less (almost no effect)),4 (Herbicidal rate of 70% or more and less than 90%),0 (Herbicidal rate of 5% or less (almost no effect)),0 (Herbicidal rate of 5% or less (almost no effect)),0 (Herbicidal rate of 5% or less (almost no effect)),0 (Herbicidal rate of 5% or less (almost no effect)),1 (Herbicidal rate of 5% or more and less than 20%),0 (Herbicidal rate of 5% or less (almost no effect)),0 (Herbicidal rate of 5% or less (almost no effect)),0 (Herbicidal rate of 5% or less (almost no effect)),
CCCC(=O)Oc1c(C)nn(C)c(=O)c1-c1c(-c2ccc(C(F)(F)F)cc2)sc2cc(F)ccc12 [3-140],3 (Herbicidal rate of 40% or more and less than 70%),,,5 (Herbicidal rate of 90% or more (almost completely withered)),4 (Herbicidal rate of 70% or more and less than 90%),,,3 (Herbicidal rate of 40% or more and less than 70%),,,,,,,,"Herbicidal effect by soil treatment, M: velvetleaf [3]: 0 (Herbicidal rate of 5% or less (almost no effect)); F: southern crabgrass, herbicidal effect grade [4, 20]: 1 (Herbicidal rate of 5% or more and less than 20%); R: persian speedwell, herbicidal effect grade [5, 20]: 5 (Herbicidal rate of 90% or more (almost completely withered)); Herbicidal effect by soil treatment, N: redroot pigweed [6]: 4 (Herbicidal rate of 70% or more and less than 90%); Herbicidal effect by soil treatment, O: lambsquarters [9]: 3 (Herbicidal rate of 40% or more and less than 70%); P: chickweed, herbicidal effect grade [10, 20]: 5 (Herbicidal rate of 90% or more (almost completely withered)); H: barnyard grass, herbicidal effect grade [11, 20]: 3 (Herbicidal rate of 40% or more and less than 70%); Herbicidal effect by soil treatment, L: windgrass [12]: 0 (Herbicidal rate of 5% or less (almost no effect)); O: lambsquarters, herbicidal effect grade [14, 20]: 4 (Herbicidal rate of 70% or more and less than 90%); Herbicidal effect by soil treatment, F: southern crabgrass [15]: 0 (Herbicidal rate of 5% or less (almost no effect)); G: green foxtail, herbicidal effect grade [16, 20]: 2 (Herbicidal rate of 20% or more and less than 40%)"

# From US20230085307A1, “PYRIDAZINONE COMPOUND AND HERBICIDE” (NISSAN CHEMICAL CORPORATION, priority 2019, published 2023)
